Values after ≈ are worked out from the molar mass of the structure shown.
What was measured:
[1] = test system: diabetic (db/db) mice; experiment: Mouse diabetic wound model; type: in vivo; conditions: for wound healing versus vehicle: 0.25 mg/wound/day; for wound healing versus vehicle / wound closure: db/db mice; for wound closure: 0.25 mg/wound/day topical
Text: The excisional mouse diabetic model validated by Sullivan et al. was used (Sullivan et al., Plast. Reconstr. Surg. (2004) 113, 953-960). The procedure for inflicting the wounds (single 8 mm wound on the dorsal region) was the same as described previously (Gooyit et al., ACS Chem. Biol. (2014) 9, 505-510). Wounds were photographed and covered with a sterile 3M Tegaderm™ transparent dressing (Butler Schein Animal Health, Inc.).
Female diabetic db/db (BKS.Cg-Dock7m+/+Leprdb/J, 8-weeks old, 38±3 g, n=24) were used for this study. Wounds were inflicted as described. Treatment with the MMP-2 inhibitor (50 μL of 5.0 mg/mL in 80% propylene glycol/20% DMSO, equivalent to 0.25 mg per wound) or vehicle (50 μL of 80% propylene glycol/20% DMSO) was started one day after wound infliction and continued once a day for 14 days. Digital photographs of wounds were taken on days 0, 7, 10, and 14 while the animals were under isoflurane anesthesia. On day 14, all mice were sacrificed. The wounds were excised, embedded in optimal cutting temperature (OCT) compound, and cryosectioned for histological evaluation.
Female diabetic db/db (BKS.Cg-Dock7m+/+Leprdb/J, 8-weeks old, 38±3 g, n=24) were used for this study. Wounds were inflicted and the following day the wounds were treated topically with MMP-8 (50 μL of 20 μg/mL MMP-8 in reaction buffer) or vehicle (50 μL reaction buffer) once a day for 14 days. The reaction buffer consisted of 50 mM Tris (pH 7.5), 10 mM CaCl2, 150 mM NaCl, and 0.05% (w/v) Brij-35. Digital photographs of the wounds were taken on days 0, 7, 10, and 14 while animals were under isoflurane anesthesia. On days 7 and 14, 12 mice (n=6 per group) were sacrificed. The wounds were excised, embedded in OCT compound, and cryosectioned for histological evaluation.
Photographs were taken using the procedure described by Gooyit et al. (ACS Chem Biol. (2014) 9, 505-510) at a fixed distance above the wounds and calibrated using a ruler included in the photographic frame. Image J 1.48c software was used to calculate wound areas. The percentage of wound closure was calculated from the wound area on the specified day relative to that on day 0.
Fresh wound tissue was harvested and embedded in OCT compound. Subsequently, the tissue was cryosectioned for H&E staining (12-μm thickness) and for apoptosis assays and in-situ zymography (8-μm thickness). Re-epithelialization was assessed on a Nikon Eclipse 90i Fluorescent Microscope (Nikon Instruments Inc.) as described earlier (Tkalcevic et al., Toxicol. Pathol. (2009) 37, 183-192). Apoptosis was evaluated using Derma TACS™ Apoptosis detection kits (Trevigen, Inc.) according to the manufacturer's instructions. The protocol of in-situ zymography was adapted from known methods. Gelatinolytic activity was detected in unfixed cryostat sections using DQ-gelatin as a substrate. DQ-gelatin was prepared at a concentration of 20 μg/mL in Tris-buffered saline (TBS) buffer (50 mM TBS pH 7.6, 1 mM CaCl2). A general MMP inhibitor in 0.5 mM EDTA was prepared as a negative control. Cryostat sections were air-dried for 10 min and incubated in the substrate mixture in the presence and absence of EDTA for 1 hr at room temperature. After the incubation period, the slides were washed in PBS (three times, 5 min each), fixed with 4% paraformaldehyde in PBS for 10 min in the dark, washed again with PBS (three times, 5 min each), incubated in the dark for 5 min with 300 nM DAPI solution, and mounted with anti-quenching mounting medium. Fluorescence of FITC was detected with excitation at 460-500 nm and emission at 512-542 nm. DAPI was detected with excitation at 340-380 nm and emission at 425-∞ nm.
Data are expressed as mean±SD. Wound healing between the groups in the studies were analyzed for statistical significance using a paired Student t-test, where p<0.05 was considered statistically significant.

[2] = target: MMP-9 (Homo sapiens (Human), UniProt P14780); conditions: at 50,000 nM; Gooyit et al. 2013; cited from earlier work
Chain of MMP-9 (P14780 107-444): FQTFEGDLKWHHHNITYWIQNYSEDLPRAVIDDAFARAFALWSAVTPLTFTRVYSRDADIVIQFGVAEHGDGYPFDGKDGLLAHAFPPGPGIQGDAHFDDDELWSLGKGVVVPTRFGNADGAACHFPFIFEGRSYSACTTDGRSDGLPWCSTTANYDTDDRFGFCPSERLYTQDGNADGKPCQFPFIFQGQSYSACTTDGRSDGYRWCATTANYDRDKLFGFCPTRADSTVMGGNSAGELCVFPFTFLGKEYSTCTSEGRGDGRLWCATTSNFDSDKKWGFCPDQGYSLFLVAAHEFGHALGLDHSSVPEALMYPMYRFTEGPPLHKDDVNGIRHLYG

[3] = target: MMP-2 (Homo sapiens (Human), UniProt P08253); conditions: literature / previously reported; cited from earlier work
Chain of MMP-2 (P08253 110-660): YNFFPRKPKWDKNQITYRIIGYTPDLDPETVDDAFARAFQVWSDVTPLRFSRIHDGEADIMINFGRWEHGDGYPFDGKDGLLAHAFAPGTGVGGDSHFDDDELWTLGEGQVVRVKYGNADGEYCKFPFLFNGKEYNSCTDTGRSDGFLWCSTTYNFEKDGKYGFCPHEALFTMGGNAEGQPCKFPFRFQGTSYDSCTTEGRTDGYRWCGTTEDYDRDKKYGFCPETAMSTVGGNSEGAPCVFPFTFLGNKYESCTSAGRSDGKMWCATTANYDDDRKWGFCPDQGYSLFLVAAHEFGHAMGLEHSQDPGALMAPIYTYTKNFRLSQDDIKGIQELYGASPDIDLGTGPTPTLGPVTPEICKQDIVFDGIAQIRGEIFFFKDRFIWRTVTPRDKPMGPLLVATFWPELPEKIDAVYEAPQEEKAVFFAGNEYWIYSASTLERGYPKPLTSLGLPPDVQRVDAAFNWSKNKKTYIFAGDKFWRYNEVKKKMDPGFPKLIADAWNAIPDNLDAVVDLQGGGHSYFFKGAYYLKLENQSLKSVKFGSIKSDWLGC

[4] = physchem; conditions: water, thermodynamic from solid
[5] = test system: non-diabetic wounds; experiment: Healing of non-diabetic wounds; type: in vivo, mice; conditions: in words
[6] = target: ADAM9 (Homo sapiens (Human), UniProt Q13443); experiment: Enzyme inhibition studies, ADAM9; type: biochemical
Chain of ADAM9 (Q13443 206-697): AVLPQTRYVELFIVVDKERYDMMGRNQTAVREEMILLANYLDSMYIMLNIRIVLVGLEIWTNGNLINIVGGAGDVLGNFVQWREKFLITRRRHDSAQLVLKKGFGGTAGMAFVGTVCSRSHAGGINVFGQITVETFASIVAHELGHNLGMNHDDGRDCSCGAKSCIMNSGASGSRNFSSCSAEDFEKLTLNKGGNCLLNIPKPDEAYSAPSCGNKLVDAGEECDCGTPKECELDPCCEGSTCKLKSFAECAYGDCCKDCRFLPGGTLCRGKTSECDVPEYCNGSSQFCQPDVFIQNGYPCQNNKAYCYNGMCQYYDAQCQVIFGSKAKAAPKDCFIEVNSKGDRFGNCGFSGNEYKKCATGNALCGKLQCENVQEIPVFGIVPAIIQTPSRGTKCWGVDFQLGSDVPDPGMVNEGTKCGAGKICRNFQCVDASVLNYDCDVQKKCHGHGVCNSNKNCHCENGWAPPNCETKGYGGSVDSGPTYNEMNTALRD

[7] = target: ADAM10 (Homo sapiens (Human), UniProt O14672); experiment: Enzyme inhibition studies, ADAM10; type: biochemical
Chain of ADAM10 (O14672 214-672): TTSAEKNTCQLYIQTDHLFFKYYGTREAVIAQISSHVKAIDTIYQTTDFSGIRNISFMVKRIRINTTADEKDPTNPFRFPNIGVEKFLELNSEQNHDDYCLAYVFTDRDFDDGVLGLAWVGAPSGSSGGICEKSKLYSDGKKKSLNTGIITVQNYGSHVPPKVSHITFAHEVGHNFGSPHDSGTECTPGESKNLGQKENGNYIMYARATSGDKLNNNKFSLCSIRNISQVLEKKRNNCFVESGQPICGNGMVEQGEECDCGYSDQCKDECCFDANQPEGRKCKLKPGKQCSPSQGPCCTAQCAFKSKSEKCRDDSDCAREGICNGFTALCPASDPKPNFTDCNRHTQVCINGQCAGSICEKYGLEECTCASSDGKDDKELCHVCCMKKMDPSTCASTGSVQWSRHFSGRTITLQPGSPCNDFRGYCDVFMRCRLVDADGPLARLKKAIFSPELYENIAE

[8] = target: MMP-7 (Homo sapiens (Human), UniProt P09237); conditions: at 250 μM; data from Gooyit et al. 2014; cited from earlier work
Chain of MMP-7 (P09237 95-267): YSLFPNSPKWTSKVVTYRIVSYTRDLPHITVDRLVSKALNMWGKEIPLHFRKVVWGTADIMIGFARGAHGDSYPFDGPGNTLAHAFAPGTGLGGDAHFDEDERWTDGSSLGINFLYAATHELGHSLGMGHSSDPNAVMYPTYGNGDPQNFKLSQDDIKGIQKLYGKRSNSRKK

[9] = target: MMP-1 (Homo sapiens (Human), UniProt P03956); conditions: at 250 μM; data from Gooyit et al. 2014; cited from earlier work
Chain of MMP-1 (P03956 98-276): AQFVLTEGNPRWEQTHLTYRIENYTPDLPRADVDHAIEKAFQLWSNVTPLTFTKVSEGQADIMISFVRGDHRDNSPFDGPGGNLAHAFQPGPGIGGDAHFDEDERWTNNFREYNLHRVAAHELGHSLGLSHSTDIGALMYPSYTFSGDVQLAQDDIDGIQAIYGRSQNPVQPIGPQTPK

[10] = test system: non-diabetic wounds; conditions: rats, pigs, and humans; in words; cited from earlier work
[11] = target: MMP-14 (Homo sapiens (Human), UniProt P50281); conditions: literature; cited from earlier work

CCNC(=O)Nc1ccc(Oc2ccc(S(=O)(=O)CC3CS3)cc2)cc1 (centres unmarked) [Compound 1x]
wound healing versus vehicle ([1]; in words): No significant differences
wound healing versus vehicle ([1]; in words, listed as MMP-2 inhibitor): No differences were observed between the groups
re-epithelialization ([1]; H&E staining, day 14, in words): Partial re-epithelialization
wound closure ([1]; day 7): 23±16%
wound closure ([1]; day 10): 45±11%
wound closure ([1]; day 14): 70±15%
MMP-9 inhibition [2]: 28%
residence time bound to MMP-2 [3]: 24.5 min

Nc1ccc(Oc2ccc(S(=O)(=O)CC3CS3)cc2)cc1 (centres unmarked) [Compound 2]
solubility [4]: 4900 µg/mL (≈ 15.2 mM)
healing of diabetic wounds ([1]; selective MMP-9 inhibition, in words): healed more rapidly
effect on non-diabetic wounds [5]: does not show any effect
inhibition at 20 µM [6]: 30%
inhibition at 20 µM [7]: 21%
Inhibition [8]: 16%^i, j
Inhibition [9]: 10%^i, j

CNC(=O)[C@H](Cc1c[nH]c2ccccc12)NC(=O)[C@@H](CC(=O)NO)CC(C)C [ilomastat]
wound closure and epithelialization in non-diabetic wounds [10]: delayed wound closure and diminished epithelialization

B1: TIMP-4: tissue inhibitor of metalloproteinase, protein inhibitor of MMPs (protein, UniProt Q99727 30-224, looked up)
Metalloproteinase inhibitor 4: CSCAPAHPQQHICHSALVIRAKISSEKVVPASADPADTEKMLRYEIKQIKMFKGFEKVKDVQYIYTPFDSSLCGVKLEANSQKQYLLTGQVLSDGKVFIHLCNYIEPWEDLSLVQRESLNHHYHLNCGCQITTCYTVPCTISAPNECLWTDWLLERKLYGYQAQHYVCMKHVDGTCSWYRGHLPLRKEFVDIVQP
residence time bound to MMP-14 [11]: 39 min
